Reference: patent publication US20230340012A1, “NATURAL AND SYNTHETIC COMPOUNDS FOR TREATING CANCER AND OTHER DISEASES” (PACIFIC ARROW LIMITED, priority 2009, published 2023)

System: cancer cells
Test: MTT cytotoxic assay of esterification products (Cytotoxicity activity)
Format: cell-based, human
In short: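 Cytotoxicity was read by MTT (Carmichael method, modified), with cells seeded 24 h ahead of treatment. Sixteen human cancer lines spanning bone, lung, bladder, ovary, colon, pancreas, prostate, skin, mouth, kidney, breast, liver, brain, leukemia and cervix were used. Test samples were acyl chloride esterification products of triterpenes, as mixtures or HPLC-purified compounds.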

[1] = E4A esterified with 2-propenoyl chloride (Ppe = Propenoyl), compounds isolated with HPLC
[2] = E4A esterified with Propionyl chloride (Ppi = Propionyl), compounds isolated with HPLC
[3] = E4A esterified with benzoyl chloride (Ben = benzoyl), compounds isolated with HPLC
[4] = esterification products of core compound E4A with (2E)-2-pentenoyl chloride (2pe = 2-pentenoyl)
[5] = esterification products of core compound E4A with Butyryl chloride (But = Butyryl)
[6] = esterification products of core compound E4A with Decanoyl chloride (Dec = Decanoyl)
[7] = esterification products of core compound E4A with Isobutyryl chloride (Iso = Isobutyryl)
[8] = esterification products of core compound E4A with Myristoyl chloride (Myr = Myristoyl)
[9] = esterification products of core compound E4A with Octanoyl chloride (Oct = Octanoyl)
[10] = MTT cytotoxic assay, isolated esterification products of E4A
[11] = esterification products isolated with HPLC, graded strong / moderate / weak
[12] = E4A esterified with Cinnamoyl chloride (Cin = Cinnamoyl), compounds isolated with HPLC

In the case of CC1(C)CC2C3=CCC4C5(C)CCC(OC(=O)c6ccccc6)C(C)(COC(=O)c6ccccc6)C5CCC4(C)C3(C)CC(OC(=O)c3ccccc3)C2(COC(=O)c2ccccc2)C(O)C1OC(=O)c1ccccc1 (centres unmarked) [Compound K17], the Cytotoxicity activity [1] was “weak”, the Cytotoxicity activity [2] was “weak” and the Cytotoxicity activity [3] was “weak”. The Cytotoxicity activity [4] was “weak”, the Cytotoxicity activity [5] was “weak” and the Cytotoxicity activity [6] was “weak”. The Cytotoxicity activity [7] was “weak”, the Cytotoxicity activity [8] was “weak” and the Cytotoxicity activity [9] was “weak”.

For C=CCCC(=O)OCC1(C)C(O)CCC2(C)C1CCC1(C)C2CC=C2C3CC(C)(C)C(OC(=O)CCC=C)C(O)C3(COC(=O)CCC=C)C(O)CC21C (centres unmarked) [Compound C4], the Cytotoxicity activity [10] was “moderate”.

With CC=C(C)C(=O)OCC1(C)C(OC(=O)C(CC)CC)CCC2(C)C1CCC1(C)C2CC=C2C3CC(C)(C)C(OC(=O)C(CC)CC)C(O)C3(COC(=O)C(C)=CC)C(O)CC21C (centres unmarked) [Tig—R—Eth—5] the Cytotoxicity activity [11] was “weak”.

With C=CCCC(=O)OCC12C(O)CC3(C)C(=CCC4C5(C)CCC(O)C(C)(COC(=O)C(C)=CC)C5CCC43C)C1CC(C)(C)C(OC(=O)CCC=C)C2O (centres unmarked) [Tig—Pen—2] the Cytotoxicity activity [11] was “moderate”.

In the case of C=CCCC(=O)OCC1(C)C(OC(=O)CCC=C)CCC2(C)C1CCC1(C)C2CC=C2C3CC(C)(C)C(OC(=O)CCC=C)C(O)C3(COC(=O)CCC=C)C(OC(=O)CCC=C)CC21C (centres unmarked) [Compound C17], the Cytotoxicity activity [10] was “weak”.

C=CCCC(=O)OCC1(C)C(O)CCC2(C)C1CCC1(C)C2CC=C2C3CC(C)(C)C(OC(=O)CCC=C)C(OC(=O)CCC=C)C3(COC(=O)CCC=C)C(O)CC21C (centres unmarked) [Compound C8] was tested, and the Cytotoxicity activity [10] was “weak”.

CCC(CC)C(=O)OCC1(C)C(OC(=O)C(CC)CC)CCC2(C)C1CCC1(C)C2CC=C2C3CC(C)(C)C(O)C(OC(=O)C(CC)CC)C3(COC(=O)C(CC)CC)C(O)CC21C (centres unmarked) [Compound E14] was tested, and the Cytotoxicity activity [10] was “weak”.

In the case of C=CCCC(=O)OCC1(C)C(OC(=O)CCC=C)CCC2(C)C1CCC1(C)C2CC=C2C3CC(C)(C)C(O)C(OC(=O)CCC=C)C3(COC(=O)CCC=C)C(O)CC21C (centres unmarked) [Compound C14], the Cytotoxicity activity [10] was “weak”.

With CC1(C)CC2C3=CCC4C5(C)CCC(OC(=O)c6ccccc6)C(C)(COC(=O)c6ccccc6)C5CCC4(C)C3(C)CC(O)C2(COC(=O)c2ccccc2)C(OC(=O)c2ccccc2)C1OC(=O)c1ccccc1 (centres unmarked) [Compound K15] the Cytotoxicity activity [1] was “weak”, the Cytotoxicity activity [2] was “weak” and the Cytotoxicity activity [3] was “weak”. For the same compound, the Cytotoxicity activity [4] was “weak”, the Cytotoxicity activity [5] was “weak” and the Cytotoxicity activity [6] was “weak”. The Cytotoxicity activity [7] was “weak”, the Cytotoxicity activity [8] was “weak” and the Cytotoxicity activity [9] was “weak”.

C=CCCC(=O)OC1CCC2(C)C(CCC3(C)C2CC=C2C4CC(C)(C)C(O)C(O)C4(COC(=O)C(C)=CC)C(O)CC23C)C1(C)COC(=O)C(C)=CC (centres unmarked) [Tig—R—Pen—4] was tested, and the Cytotoxicity activity [11] was “moderate”.

With CC(C)=CC(=O)OCC1(C)C(OC(=O)C=C(C)C)CCC2(C)C1CCC1(C)C2CC=C2C3CC(C)(C)C(OC(=O)C=C(C)C)C(O)C3(COC(=O)C=C(C)C)C(OC(=O)C=C(C)C)CC21C (centres unmarked) [Compound B17] the Cytotoxicity activity [10] was “weak”.

With C=CCCC(=O)OC1C(OC(=O)CCC=C)C2(CO)C(OC(=O)CCC=C)CC3(C)C(=CCC4C5(C)CCC(O)C(C)(CO)C5CCC43C)C2CC1(C)C (centres unmarked) [Compound C22] the Cytotoxicity activity [10] was “moderate”.

CC=CC(=O)OCC12C(O)CC3(C)C(=CCC4C5(C)CCC(O)C(C)(COC(=O)C(C)=CC)C5CCC43C)C1CC(C)(C)C(O)C2OC(=O)C=CC (centres unmarked) [Tig—Cro—3] was tested, and the Cytotoxicity activity [11] was “moderate”.

In the case of CC1(C)CC2C3=CCC4C5(C)CCC(OC(=O)C=Cc6ccccc6)C(C)(COC(=O)C=Cc6ccccc6)C5CCC4(C)C3(C)CC(OC(=O)C=Cc3ccccc3)C2(COC(=O)C=Cc2ccccc2)C(O)C1OC(=O)C=Cc1ccccc1 (centres unmarked) [Compound J17], the Cytotoxicity activity [12] was “weak”.

CC=C(C)C(=O)OCC1(C)C(OC(=O)C=Cc2ccccc2)CCC2(C)C1CCC1(C)C2CC=C2C3CC(C)(C)C(O)C(O)C3(COC(=O)C=Cc3ccccc3)C(O)CC21C (centres unmarked) [Tig—Cin—4] was tested, and the Cytotoxicity activity [11] was “moderate”.

In the case of CC1(C)CC2C3=CCC4C5(C)CCC(OC(=O)C=Cc6ccccc6)C(C)(CO)C5CCC4(C)C3(C)CC(O)C2(CO)C(OC(=O)C=Cc2ccccc2)C1OC(=O)C=Cc1ccccc1 (centres unmarked) [Compound J23], the Cytotoxicity activity [12] was “moderate”.

In the case of CCC(CC)C(=O)OCC12C(O)CC3(C)C(=CCC4C5(C)CCC(O)C(C)(CO)C5CCC43C)C1CC(C)(C)C(O)C2O (centres unmarked) [Compound E2], the Cytotoxicity activity [10] was “moderate”.

CC=C(C)C(=O)OCC1(C)C(OC(C)=O)CCC2(C)C1CCC1(C)C2CC=C2C3CC(C)(C)C(OC(C)=O)C(O)C3(COC(=O)C(C)=CC)C(O)CC21C (centres unmarked) [Tig—R—Acy—5] was tested, and the Cytotoxicity activity [11] was “weak”.

For CCC(CC)C(=O)OCC1(C)C(OC(=O)C(CC)CC)CCC2(C)C1CCC1(C)C2CC=C2C3CC(C)(C)C(O)C(OC(=O)C(CC)CC)C3(COC(=O)C(CC)CC)C(OC(=O)C(CC)CC)CC21C (centres unmarked) [Compound E18], the Cytotoxicity activity [10] was “weak”.

With CC=C(C)C(=O)OCC1(C)C(OC(=O)C=C(C)C)CCC2(C)C1CCC1(C)C2CC=C2C3CC(C)(C)C(O)C(O)C3(COC(=O)C(C)=CC)C(O)CC21C (centres unmarked) [Tig—R—Sen—4] the Cytotoxicity activity [11] was “moderate”.

In the case of CCC(CC)C(=O)OCC12C(O)CC3(C)C(=CCC4C5(C)CCC(O)C(C)(CO)C5CCC43C)C1CC(C)(C)C(O)C2OC(=O)C(CC)CC (centres unmarked) [Compound E26], the Cytotoxicity activity [10] was “moderate”.

For CCC(CC)C(=O)OCC1(C)C(O)CCC2(C)C1CCC1(C)C2CC=C2C3CC(C)(C)C(O)C(O)C3(CO)C(OC(=O)C(CC)CC)CC21C (centres unmarked) [Compound E32], the Cytotoxicity activity [10] was “moderate”.

CC=C(C)C(=O)OCC1(C)C(O)CCC2(C)C1CCC1(C)C2CC=C2C3CC(C)(C)C(OC(C)=O)C(O)C3(CO)C(O)CC21C (centres unmarked) [Tig—Acy—5] was tested, and the Cytotoxicity activity [11] was “moderate”.

For C=CCCC(=O)OCC1(C)C(OC(=O)CCC=C)CCC2(C)C1CCC1(C)C2CC=C2C3CC(C)(C)C(O)C(O)C3(COC(=O)CCC=C)C(O)CC21C (centres unmarked) [Compound C6], the Cytotoxicity activity [10] was “moderate”.

CC(C)=CC(=O)OCC1(C)C(OC(=O)C=C(C)C)CCC2(C)C1CCC1(C)C2CC=C2C3CC(C)(C)C(O)C(O)C3(CO)C(O)CC21C (centres unmarked) [Compound B31] was tested, and the Cytotoxicity activity [10] was “moderate”.

In the case of CC(C)=CC(=O)OCC1(C)C(O)CCC2(C)C1CCC1(C)C2CC=C2C3CC(C)(C)C(OC(=O)C=C(C)C)C(O)C3(CO)C(O)CC21C (centres unmarked) [Compound B29], the Cytotoxicity activity [10] was “moderate”.

CCCCCC(=O)OCC1(C)C(OC(=O)CCCCC)CCC2(C)C1CCC1(C)C2CC=C2C3CC(C)(C)C(O)C(O)C3(CO)C(O)CC21C (centres unmarked) [Compound D31] was tested, and the Cytotoxicity activity [10] was “moderate”.

With CC(=O)OCC1(C)C(O)CCC2(C)C1CCC1(C)C2CC=C2C3CC(C)(C)C(OC(C)=O)C(O)C3(COC(C)=O)C(OC(C)=O)CC21C (centres unmarked) [Compound H13] the Cytotoxicity activity (E4A esterified with Acetyl chloride (Acy = Acetyl), compounds isolated with HPLC) was “weak”.

For CC(C)=CC(=O)OCC12C(O)CC3(C)C(=CCC4C5(C)CCC(O)C(C)(CO)C5CCC43C)C1CC(C)(C)C(OC(=O)C=C(C)C)C2OC(=O)C=C(C)C (centres unmarked) [Compound B20], the Cytotoxicity activity [10] was “moderate”.

For CC1(C)CC2C3=CCC4C5(C)CCC(OC(=O)C=Cc6ccccc6)C(C)(COC(=O)C=Cc6ccccc6)C5CCC4(C)C3(C)CC(OC(=O)C=Cc3ccccc3)C2(COC(=O)C=Cc2ccccc2)C(O)C1O (centres unmarked) [Compound J10], the Cytotoxicity activity [12] was “weak”.

With C=CCCC(=O)OC1C(O)C(C)(C)CC2C3=CCC4C5(C)CCC(O)C(C)(COC(=O)C(C)=CC)C5CCC4(C)C3(C)CC(O)C21CO (centres unmarked) [Tig—Pen—6] the Cytotoxicity activity [11] was “moderate”.
